ChEMBL document CHEMBL4699563, “Synthesis and evaluation of etoposide and podophyllotoxin analogs against topoisomerase IIα and HCT-116 cells” (2020)
The source made the active and inactive calls. No cut-off for these calls is given here.

Experiments:
[1] = molecular target: DNA topoisomerase 2-alpha (Homo sapiens) (UniProt P11388); test: Inhibition of wild type human topoisomerase-2alpha expressed in Saccharomyces cerevisiae JEL1deltatop1 assessed as inhibition of supercoiled DNA relaxation at 100 to 200 uM using negatively supercoiled pBRDNA as substrate incubated for 15 mins in presence of ATP by gel electrophoresis; conditions: dose microM 100-200, time 15.0 min
HCT-116 [2] = test: Cytotoxicity against human HCT-116 cells assessed as reduction in cell viability after 72 hrs by Alamar blue assay; type: functional; conditions: read-out: LD50 (the source's name)
A549 [3] = test: Antiproliferative activity against human A549 cells assessed as inhibition of cell proliferation after 48 hrs by MTT assay; type: functional; conditions: read-out: LD50 (the source's name)
[4] = molecular target: DNA topoisomerase 2-alpha (Homo sapiens) (UniProt P11388); test: Inhibition of wild type human topoisomerase-2alpha expressed in Saccharomyces cerevisiae JEL1deltatop1 assessed as induction of supercoiled DNA cleavage at 100 to 200 uM using negatively supercoiled pBRDNA as substrate incubated for 30 mins by gel electrophoresis; conditions: dose microM 100-200, time 30.0 min
HCT-116 [5] = test: Cell cycle arrest in human HCT-116 cells assessed as accumulation at sub-G1 phase after 48 hrs by propidium iodide staining based flow cytometry analysis; type: functional
[6] = molecular target: DNA topoisomerase 2-alpha (Homo sapiens) (UniProt P11388); test: Inhibition of wild type human topoisomerase-2alpha expressed in Saccharomyces cerevisiae JEL1deltatop1 assessed as induction of supercoiled DNA cleavage using negatively supercoiled pBRDNA as substrate incubated for 30 mins by gel electrophoresis; conditions: dose microM 100-200, time 30.0 min
HCT-116 [7] = test: Cell cycle arrest in human HCT-116 cells assessed as decrease in cell population at S phase after 48 hrs by propidium iodide staining based flow cytometry analysis; type: functional
A549 [8] = test: Cytotoxicity against human A549 cells assessed as reduction in cell viability after 72 hrs by Alamar blue assay; type: functional; conditions: read-out: LD50 (the source's name)
[9] = molecular target: DNA topoisomerase 2-alpha (Homo sapiens) (UniProt P11388); test: Inhibition of wild type human topoisomerase-2alpha expressed in Saccharomyces cerevisiae JEL1deltatop1 assessed as induction of supercoiled DNA cleavage at 200 uM using negatively supercoiled pBRDNA as substrate incubated for 30 mins by gel electrophoresis

DNA topoisomerase 2-alpha (Homo sapiens), sequence (P11388 whole entry): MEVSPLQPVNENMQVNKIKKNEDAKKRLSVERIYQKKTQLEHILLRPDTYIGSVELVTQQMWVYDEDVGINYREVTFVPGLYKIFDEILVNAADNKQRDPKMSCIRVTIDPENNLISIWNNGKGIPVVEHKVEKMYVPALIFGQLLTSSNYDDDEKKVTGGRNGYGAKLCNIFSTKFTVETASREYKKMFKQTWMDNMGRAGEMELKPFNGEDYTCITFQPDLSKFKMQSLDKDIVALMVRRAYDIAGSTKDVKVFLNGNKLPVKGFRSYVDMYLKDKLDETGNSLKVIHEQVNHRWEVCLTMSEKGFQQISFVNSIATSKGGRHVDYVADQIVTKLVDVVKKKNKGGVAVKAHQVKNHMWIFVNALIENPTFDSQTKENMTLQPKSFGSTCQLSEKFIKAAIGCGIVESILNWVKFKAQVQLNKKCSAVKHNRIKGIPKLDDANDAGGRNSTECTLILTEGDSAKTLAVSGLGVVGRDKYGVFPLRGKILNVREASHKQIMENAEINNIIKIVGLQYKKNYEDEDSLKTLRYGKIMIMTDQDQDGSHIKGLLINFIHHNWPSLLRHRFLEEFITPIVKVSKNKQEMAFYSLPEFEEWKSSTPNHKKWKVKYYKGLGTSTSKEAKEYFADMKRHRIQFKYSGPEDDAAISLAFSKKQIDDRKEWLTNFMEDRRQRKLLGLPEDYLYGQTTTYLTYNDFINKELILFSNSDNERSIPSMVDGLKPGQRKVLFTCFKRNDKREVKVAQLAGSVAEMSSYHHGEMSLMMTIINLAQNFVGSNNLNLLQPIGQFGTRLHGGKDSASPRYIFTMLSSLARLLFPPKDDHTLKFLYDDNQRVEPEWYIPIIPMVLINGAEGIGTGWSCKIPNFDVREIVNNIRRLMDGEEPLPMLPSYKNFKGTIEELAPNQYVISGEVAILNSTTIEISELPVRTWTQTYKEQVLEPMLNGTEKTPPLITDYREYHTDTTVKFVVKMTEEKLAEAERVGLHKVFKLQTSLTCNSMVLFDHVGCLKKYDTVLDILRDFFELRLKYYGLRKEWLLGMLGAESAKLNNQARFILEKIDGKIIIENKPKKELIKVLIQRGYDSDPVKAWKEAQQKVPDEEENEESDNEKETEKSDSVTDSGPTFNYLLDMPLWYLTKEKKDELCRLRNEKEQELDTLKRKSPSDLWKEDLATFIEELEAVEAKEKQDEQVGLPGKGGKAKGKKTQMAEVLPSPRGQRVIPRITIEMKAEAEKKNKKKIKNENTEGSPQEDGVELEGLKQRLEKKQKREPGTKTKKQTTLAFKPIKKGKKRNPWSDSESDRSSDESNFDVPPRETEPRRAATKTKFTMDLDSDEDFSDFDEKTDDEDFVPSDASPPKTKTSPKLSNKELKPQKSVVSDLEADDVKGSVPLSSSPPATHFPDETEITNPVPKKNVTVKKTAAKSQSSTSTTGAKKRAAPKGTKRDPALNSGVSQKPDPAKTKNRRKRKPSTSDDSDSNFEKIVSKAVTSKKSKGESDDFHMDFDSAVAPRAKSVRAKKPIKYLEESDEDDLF

Structure (SMILES): COc1cc([C@@H]2c3cc4c(cc3[C@H](O)[C@H]3COC(=O)[C@H]23)OCO4)c(Cl)c(OC)c1OC
- inhibition [1]: inactive

Structure (SMILES): COc1cc([C@@H]2c3cc4c(cc3[C@H](O)[C@H]3COC(=O)[C@H]23)OCO4)cc(OC)c1OC
- inhibition [1]: inactive

Structure (SMILES): COc1cc([C@@H]2c3cc4c(cc3[C@@H](O[C@@H]3O[C@@H]5CO[C@@H](C)O[C@H]5[C@H](O)[C@H]3O)[C@H]3COC(=O)[C@H]23)OCO4)cc(OC)c1O [ETOPOSIDE]
- CC50 (HCT-116 [2]): 1.6 µM
- CC50 (A549 [3]): 11.8 µM

Structure (SMILES): COc1cc([C@@H]2c3cc4c(cc3[C@H](O)[C@H]3COC(=O)[C@H]23)OCO4)c(Br)c(OC)c1OC
- inhibition [1]: inactive

Structure (SMILES): COc1cc([C@@H]2c3cc4c(cc3[C@@H](O[C@@H]3O[C@@H]5CO[C@@H](C)O[C@H]5[C@H](O)[C@H]3O)[C@H]3COC(=O)[C@H]23)OCO4)c(Cl)c(OC)c1O
- Activity [4]: Active
- inhibition [1]: Active
- Activity (HCT-116 [5]): Active
- CC50 (HCT-116 [2]): 120 µM
- Activity [6]: Active
- Activity (HCT-116 [7]): Active

Structure (SMILES): COc1c(Cl)c([C@@H]2c3cc4c(cc3[C@H](O)[C@H]3COC(=O)[C@H]23)OCO4)c(Cl)c(OC)c1OC
- CC50 (A549 [8]): 17 µM
- Activity [4]: Active
- inhibition [1]: Active
- Activity (HCT-116 [5]): Active
- CC50 (HCT-116 [2]): 20 µM
- Activity (HCT-116 [7]): Active

Structure (SMILES): COc1cc([C@@H]2c3cc4c(cc3[C@@H](O)[C@H]3COC(=O)[C@H]23)OCO4)c(Cl)c(OC)c1O
- CC50 (A549 [8]): 35 µM
- inhibition [1]: Active
- CC50 (HCT-116 [2]): 33 µM
- Activity [9]: Active
